The target in data set [1] is T1, Alpha-2C adrenergic receptor (Homo sapiens, UniProt P18825).
T1 sequence (P18825 whole entry): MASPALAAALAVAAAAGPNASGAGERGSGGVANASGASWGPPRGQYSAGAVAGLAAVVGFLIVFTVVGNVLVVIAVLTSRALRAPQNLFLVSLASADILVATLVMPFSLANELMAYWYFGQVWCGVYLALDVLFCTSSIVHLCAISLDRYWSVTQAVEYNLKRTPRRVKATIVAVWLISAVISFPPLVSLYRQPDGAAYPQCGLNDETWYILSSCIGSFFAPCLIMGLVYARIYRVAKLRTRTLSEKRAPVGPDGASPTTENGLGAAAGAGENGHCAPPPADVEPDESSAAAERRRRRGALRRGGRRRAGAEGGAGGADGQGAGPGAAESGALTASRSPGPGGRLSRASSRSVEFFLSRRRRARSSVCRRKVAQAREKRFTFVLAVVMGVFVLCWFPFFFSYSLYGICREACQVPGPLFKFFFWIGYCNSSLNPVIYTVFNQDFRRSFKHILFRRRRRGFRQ
Format: functional.

The next data set has as its target Histamine H1 receptor (Homo sapiens, UniProt P35367).
Data set [2] addresses 5-hydroxytryptamine receptor 2A (Homo sapiens, UniProt P28223). Format: functional, cell-based.
Data set [3] addresses T2, 5-hydroxytryptamine receptor 2B (Homo sapiens, UniProt P41595). It counts as functional, cell-based.
For data set [4], the target named is T2, 5-hydroxytryptamine receptor 2B. It counts as functional, cell-based. This is another data set of the same source.
Data set [5] deals with Sodium-dependent serotonin transporter (Homo sapiens, UniProt P31645).
Sodium-dependent serotonin transporter, sequence (P31645 whole entry): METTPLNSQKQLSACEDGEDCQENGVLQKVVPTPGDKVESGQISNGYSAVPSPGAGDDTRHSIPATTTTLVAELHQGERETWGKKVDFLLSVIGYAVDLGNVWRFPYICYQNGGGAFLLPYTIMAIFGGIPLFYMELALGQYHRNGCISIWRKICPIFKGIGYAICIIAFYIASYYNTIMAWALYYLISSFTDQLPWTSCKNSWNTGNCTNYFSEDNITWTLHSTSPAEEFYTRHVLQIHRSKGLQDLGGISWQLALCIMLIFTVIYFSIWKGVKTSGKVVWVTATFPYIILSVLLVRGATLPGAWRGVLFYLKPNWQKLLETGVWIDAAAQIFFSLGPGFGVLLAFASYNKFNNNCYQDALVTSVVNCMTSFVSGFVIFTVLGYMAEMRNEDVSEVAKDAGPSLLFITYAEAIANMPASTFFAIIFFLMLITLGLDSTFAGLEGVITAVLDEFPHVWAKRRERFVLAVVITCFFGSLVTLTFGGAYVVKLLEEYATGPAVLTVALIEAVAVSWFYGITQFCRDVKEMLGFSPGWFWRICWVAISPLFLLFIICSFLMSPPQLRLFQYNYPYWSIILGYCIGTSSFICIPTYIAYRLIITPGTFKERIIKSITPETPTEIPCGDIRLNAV
Data set [6] concerns the target cGMP-inhibited 3',5'-cyclic phosphodiesterase 3A (Homo sapiens, UniProt Q14432). Format: functional.
The target in the next data set is D(3) dopamine receptor (Homo sapiens, UniProt P35462).
D(3) dopamine receptor, sequence (P35462 whole entry): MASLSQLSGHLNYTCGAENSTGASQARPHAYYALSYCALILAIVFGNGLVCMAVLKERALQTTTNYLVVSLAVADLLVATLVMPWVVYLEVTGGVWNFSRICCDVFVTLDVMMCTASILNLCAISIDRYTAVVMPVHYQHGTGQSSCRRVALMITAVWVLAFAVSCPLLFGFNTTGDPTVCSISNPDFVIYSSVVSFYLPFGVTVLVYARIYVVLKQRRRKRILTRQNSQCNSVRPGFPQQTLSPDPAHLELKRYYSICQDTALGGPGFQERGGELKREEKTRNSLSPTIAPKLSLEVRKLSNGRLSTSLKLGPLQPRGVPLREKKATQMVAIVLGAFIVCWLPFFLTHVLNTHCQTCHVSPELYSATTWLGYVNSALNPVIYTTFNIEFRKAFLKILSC
In data set [7] the target is T3, Alpha-2B adrenergic receptor (Homo sapiens, UniProt P18089).
T3 sequence (P18089 whole entry): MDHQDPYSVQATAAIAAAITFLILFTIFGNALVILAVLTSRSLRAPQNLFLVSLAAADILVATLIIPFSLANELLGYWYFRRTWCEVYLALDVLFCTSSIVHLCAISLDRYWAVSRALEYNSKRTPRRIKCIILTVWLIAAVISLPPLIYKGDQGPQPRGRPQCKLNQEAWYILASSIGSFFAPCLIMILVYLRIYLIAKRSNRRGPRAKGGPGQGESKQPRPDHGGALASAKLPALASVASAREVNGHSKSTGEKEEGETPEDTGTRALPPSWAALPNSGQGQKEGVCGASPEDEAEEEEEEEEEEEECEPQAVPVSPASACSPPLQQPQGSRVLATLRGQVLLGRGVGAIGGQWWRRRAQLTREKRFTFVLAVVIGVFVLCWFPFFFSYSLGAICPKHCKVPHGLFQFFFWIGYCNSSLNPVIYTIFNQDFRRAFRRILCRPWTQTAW

For data set [8], the target named is Beta-1 adrenergic receptor (Homo sapiens, UniProt P08588). Format: functional.
Beta-1 adrenergic receptor, sequence (P08588 whole entry): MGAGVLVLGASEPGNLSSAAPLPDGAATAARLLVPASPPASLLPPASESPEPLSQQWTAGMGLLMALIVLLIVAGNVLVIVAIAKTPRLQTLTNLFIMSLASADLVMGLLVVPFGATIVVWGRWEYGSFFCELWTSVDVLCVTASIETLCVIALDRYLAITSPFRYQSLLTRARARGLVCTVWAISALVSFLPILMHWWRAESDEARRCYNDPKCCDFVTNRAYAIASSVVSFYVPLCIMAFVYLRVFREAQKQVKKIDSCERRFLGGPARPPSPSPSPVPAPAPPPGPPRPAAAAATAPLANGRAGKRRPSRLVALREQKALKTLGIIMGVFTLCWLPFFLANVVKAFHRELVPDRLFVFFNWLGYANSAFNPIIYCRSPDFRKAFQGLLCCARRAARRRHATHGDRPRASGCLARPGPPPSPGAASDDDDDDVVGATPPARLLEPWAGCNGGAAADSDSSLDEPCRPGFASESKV
In data set [9] the target is Voltage-gated inwardly rectifying potassium channel KCNH2 (Homo sapiens, UniProt Q12809). Format: functional.
In data set [10] the target is T4, Neuropeptide Y receptor type 1 (Homo sapiens, UniProt P25929).
T4 sequence (P25929 whole entry): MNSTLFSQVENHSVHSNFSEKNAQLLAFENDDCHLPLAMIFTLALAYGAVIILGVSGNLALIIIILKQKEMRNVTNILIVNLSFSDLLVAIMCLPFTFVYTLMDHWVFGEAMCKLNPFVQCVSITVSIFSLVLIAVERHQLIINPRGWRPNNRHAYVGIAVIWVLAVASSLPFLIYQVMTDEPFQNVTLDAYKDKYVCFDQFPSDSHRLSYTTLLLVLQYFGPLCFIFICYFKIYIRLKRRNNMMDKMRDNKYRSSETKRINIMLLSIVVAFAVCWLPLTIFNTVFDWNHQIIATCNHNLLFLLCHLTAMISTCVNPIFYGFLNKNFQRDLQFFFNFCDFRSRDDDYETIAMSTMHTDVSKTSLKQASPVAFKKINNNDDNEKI

Data set [11] deals with Kappa-type opioid receptor (Homo sapiens, UniProt P41145).
Kappa-type opioid receptor, sequence (P41145 whole entry): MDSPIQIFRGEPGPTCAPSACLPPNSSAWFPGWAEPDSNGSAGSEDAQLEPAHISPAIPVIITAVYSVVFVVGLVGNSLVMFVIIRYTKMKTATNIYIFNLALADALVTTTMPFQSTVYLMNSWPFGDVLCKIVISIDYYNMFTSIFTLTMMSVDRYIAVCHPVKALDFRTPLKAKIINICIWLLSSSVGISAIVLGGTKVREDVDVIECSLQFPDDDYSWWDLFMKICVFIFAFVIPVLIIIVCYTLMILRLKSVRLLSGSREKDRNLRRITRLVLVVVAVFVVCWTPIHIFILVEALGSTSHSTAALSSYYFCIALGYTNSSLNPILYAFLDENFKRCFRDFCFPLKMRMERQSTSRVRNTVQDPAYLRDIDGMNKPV
Data set [12] has as its target T5, Equilibrative nucleoside transporter 1 (Homo sapiens, UniProt Q99808).
T5 sequence (Q99808 whole entry): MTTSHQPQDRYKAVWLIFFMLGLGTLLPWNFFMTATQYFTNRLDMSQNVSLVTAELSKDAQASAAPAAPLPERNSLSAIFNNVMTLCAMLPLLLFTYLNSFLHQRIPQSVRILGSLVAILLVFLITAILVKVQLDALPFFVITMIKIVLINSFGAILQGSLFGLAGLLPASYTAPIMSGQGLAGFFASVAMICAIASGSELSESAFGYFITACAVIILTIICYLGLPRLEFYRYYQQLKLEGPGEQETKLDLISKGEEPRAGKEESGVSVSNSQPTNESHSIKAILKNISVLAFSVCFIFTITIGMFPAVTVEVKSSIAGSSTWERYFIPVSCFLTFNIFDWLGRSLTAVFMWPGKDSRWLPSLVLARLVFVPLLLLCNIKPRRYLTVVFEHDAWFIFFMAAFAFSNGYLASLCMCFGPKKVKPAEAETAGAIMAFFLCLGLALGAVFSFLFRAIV
Further: assay procedure not described here.

5-hydroxytryptamine receptor 2A, sequence (P28223 whole entry): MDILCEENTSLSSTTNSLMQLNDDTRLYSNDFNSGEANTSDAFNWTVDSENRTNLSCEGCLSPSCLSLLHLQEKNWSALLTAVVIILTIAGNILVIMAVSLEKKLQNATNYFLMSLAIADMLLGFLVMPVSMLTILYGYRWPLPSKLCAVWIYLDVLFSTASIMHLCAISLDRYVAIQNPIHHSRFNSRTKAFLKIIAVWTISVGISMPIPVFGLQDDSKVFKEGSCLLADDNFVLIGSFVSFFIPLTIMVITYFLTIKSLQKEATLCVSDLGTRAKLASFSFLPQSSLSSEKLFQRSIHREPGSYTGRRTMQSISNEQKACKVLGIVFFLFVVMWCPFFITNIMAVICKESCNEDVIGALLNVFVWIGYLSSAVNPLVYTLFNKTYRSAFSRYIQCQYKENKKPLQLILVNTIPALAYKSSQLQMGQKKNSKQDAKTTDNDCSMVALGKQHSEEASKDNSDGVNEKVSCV
T2 sequence (P41595 whole entry): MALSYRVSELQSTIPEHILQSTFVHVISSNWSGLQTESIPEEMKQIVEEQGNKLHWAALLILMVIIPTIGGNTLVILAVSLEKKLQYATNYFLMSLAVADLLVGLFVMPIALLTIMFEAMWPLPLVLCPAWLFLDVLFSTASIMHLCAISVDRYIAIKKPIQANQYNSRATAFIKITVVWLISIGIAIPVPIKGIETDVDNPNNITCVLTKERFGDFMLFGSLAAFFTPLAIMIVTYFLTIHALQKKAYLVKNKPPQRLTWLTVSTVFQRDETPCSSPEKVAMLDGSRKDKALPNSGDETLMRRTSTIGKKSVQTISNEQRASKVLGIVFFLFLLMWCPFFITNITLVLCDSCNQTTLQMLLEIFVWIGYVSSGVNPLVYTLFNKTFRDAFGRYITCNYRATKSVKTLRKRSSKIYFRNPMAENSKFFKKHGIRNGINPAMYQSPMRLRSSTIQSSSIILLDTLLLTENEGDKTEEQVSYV
Histamine H1 receptor, sequence (P35367 whole entry): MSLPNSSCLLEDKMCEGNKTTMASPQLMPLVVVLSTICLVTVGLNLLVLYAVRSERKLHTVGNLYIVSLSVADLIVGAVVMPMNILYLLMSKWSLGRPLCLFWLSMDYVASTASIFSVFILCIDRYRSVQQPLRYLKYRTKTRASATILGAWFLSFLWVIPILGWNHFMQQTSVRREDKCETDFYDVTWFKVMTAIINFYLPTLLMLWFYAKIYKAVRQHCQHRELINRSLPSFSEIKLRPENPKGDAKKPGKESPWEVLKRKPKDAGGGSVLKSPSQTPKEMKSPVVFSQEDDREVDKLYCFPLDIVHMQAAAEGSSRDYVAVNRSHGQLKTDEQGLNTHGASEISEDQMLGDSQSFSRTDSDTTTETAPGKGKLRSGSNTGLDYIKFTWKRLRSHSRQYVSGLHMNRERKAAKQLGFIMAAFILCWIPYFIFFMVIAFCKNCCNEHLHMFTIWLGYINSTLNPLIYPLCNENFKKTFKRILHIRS
cGMP-inhibited 3',5'-cyclic phosphodiesterase 3A, sequence (Q14432 whole entry): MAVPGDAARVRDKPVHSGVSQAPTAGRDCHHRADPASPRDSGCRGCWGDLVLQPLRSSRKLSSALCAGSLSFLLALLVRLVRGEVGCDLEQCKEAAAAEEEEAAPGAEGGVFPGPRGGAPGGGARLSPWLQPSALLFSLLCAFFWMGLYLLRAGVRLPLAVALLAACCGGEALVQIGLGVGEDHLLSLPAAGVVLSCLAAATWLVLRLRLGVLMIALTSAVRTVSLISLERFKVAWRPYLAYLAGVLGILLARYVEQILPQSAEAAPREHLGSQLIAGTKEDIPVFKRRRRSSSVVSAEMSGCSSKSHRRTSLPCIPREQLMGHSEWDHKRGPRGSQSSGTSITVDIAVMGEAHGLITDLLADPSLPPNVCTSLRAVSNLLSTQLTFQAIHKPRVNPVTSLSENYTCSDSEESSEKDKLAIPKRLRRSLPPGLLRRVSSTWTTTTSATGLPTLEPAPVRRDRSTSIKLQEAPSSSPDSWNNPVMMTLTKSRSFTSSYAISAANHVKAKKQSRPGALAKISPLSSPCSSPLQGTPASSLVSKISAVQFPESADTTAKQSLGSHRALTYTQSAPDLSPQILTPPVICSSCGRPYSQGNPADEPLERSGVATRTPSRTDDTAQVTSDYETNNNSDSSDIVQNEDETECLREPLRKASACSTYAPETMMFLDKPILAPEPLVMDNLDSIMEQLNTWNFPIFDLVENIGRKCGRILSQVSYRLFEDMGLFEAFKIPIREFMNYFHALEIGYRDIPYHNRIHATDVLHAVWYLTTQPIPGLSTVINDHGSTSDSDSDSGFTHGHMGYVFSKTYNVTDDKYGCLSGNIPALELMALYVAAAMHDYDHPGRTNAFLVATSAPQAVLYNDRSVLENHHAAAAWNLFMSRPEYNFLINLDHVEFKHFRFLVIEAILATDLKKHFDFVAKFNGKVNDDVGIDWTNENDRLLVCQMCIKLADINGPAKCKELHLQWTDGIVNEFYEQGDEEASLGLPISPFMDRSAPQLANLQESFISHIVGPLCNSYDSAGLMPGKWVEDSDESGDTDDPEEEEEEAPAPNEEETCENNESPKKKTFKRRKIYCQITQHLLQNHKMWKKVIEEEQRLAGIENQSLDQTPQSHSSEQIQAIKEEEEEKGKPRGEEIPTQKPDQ

As for `C[C@@H]1C[C@H]2[C@@H]3C[C@H](F)C4=CC(=O)C=C[C@]4(C)[C@@]3(F)[C@@H](O)C[C@]2(C)[C@H]1C(=O)CO` [DIFLUCORTOLONE], the AC50 (usually the midpoint of the concentration-response curve, whichever way the signal moves) is > 30 µM in data set [1]; > 30 µM on Histamine H1 receptor; > 30 µM in data set [2]; > 30 µM in data set [3]; 18 µM in data set [4]; > 30 µM in data set [5]. For the same molecule, the concentration at half-maximal activity (AC50) (in data set [6]; on D(3) dopamine receptor) was > 30 µM each time.
For the molecule `Clc1ccc2c(c1)C(c1ccccc1)=NCc1nncn1-2` [ESTAZOLAM], the AC50 (in data set [7]; in [1]; in [8]; on Histamine H1 receptor; in [3]; in [4]) was > 10 µM in each case. In addition, the AC50 in data set [9] (read-out: AC50) is > 30 µM; in [10], > 30 µM; in data set [11] it was 20.1 µM; in [12], > 30 µM; in [5], > 30 µM; in data set [6] it was > 30 µM. For the same molecule, the AC50 on D(3) dopamine receptor is > 30 µM.
As for `Clc1ccc(C(Cn2ccnc2)OCc2ccc(Sc3ccccc3)cc2)c(Cl)c1` (centres undefined) [FENTICONAZOLE], the concentration at half-maximal activity (AC50) is 12 µM in data set [7]; > 30 µM in data set [1]; > 30 µM in [8]; > 30 µM at Histamine H1 receptor; > 30 µM in data set [3]; > 30 µM in data set [4]. Moreover, the AC50 was 1.45 µM in [9] (read-out: AC50); 30 µM in data set [10]; 2.5 µM in data set [11]; > 30 µM in data set [12]; > 30 µM in data set [6]; 30 µM at D(3) dopamine receptor.
Regarding `CC1(C)C(/C=C/C=C/C=C/C=C2\N(CCCCS(=O)(=O)O)c3ccc4ccccc4c3C2(C)C)=[N+](CCCCS(=O)(=O)[O-])c2ccc3ccccc3c21` [INDOCYANINE GREEN ACID FORM], the AC50 in data set [7] was 6.9 µM; in data set [1], 9.7 µM; in data set [8], 9.4 µM; at Histamine H1 receptor, 8.3 µM; in [9] (read-out: AC50), 6.5 µM; in [10], > 30 µM. Moreover, the half-maximal activity concentration (AC50) stood at 13 µM in data set [11], 11 µM in data set [12], 29 µM in [6] and 8.7 µM at D(3) dopamine receptor.
As for `CC#CCn1c(N2CCC[C@@H](N)C2)nc2c1c(=O)n(Cc1nc(C)c3ccccc3n1)c(=O)n2C` [LINAGLIPTIN], the AC50 (in data set [7]; in data set [1]; in data set [8]; at Histamine H1 receptor; in data set [3]; in data set [4]) was > 10 µM in each case. In addition, the AC50 was > 30 µM in data set [10]; > 10 µM in data set [11]; > 30 µM in [12]; > 30 µM in [5]; > 30 µM in [6]; > 30 µM on D(3) dopamine receptor.
Regarding `O=C1CN=C(c2ccccc2)c2cc(Cl)ccc2N1` [NORDAZEPAM], the AC50 (in data set [7]; in data set [1]; in [8]; at Histamine H1 receptor; in data set [3]; in data set [4]) was > 10 µM in each case. For the same molecule, the AC50 in [10] is > 30 µM; in [11], 9.97 µM; in data set [12], > 30 µM; in data set [5] it was > 10 µM; in data set [6], > 30 µM; on D(3) dopamine receptor, > 10 µM.
Turning to `CCCNC(C)C(=O)Nc1ccccc1C` (centres undefined) [PRILOCAINE], the AC50 in [1], in data set [8], in [3], in data set [4], in data set [9] (read-out: AC50) and in data set [10] was > 30 µM throughout. Further, the AC50 (in [11]; in data set [12]; in [6]; on D(3) dopamine receptor) was > 30 µM throughout.
As to `Cc1cc2nc3c(=O)[nH]c(=O)nc-3n(C[C@H](O)[C@H](O)[C@H](O)COP(=O)(O)O)c2cc1C` [RIBOFLAVIN 5'-PHOSPHATE], the AC50 (in [7]; in data set [1]; in [8]; at Histamine H1 receptor; in data set [10]; in data set [11]) was > 30 µM each time. In addition, the AC50 (in data set [12]; in [5]; in data set [6]; on D(3) dopamine receptor) was > 30 µM each time.
With `[H]/N=C(/N)N[C@H]1[C@H](O)[C@@H](O)[C@H](O[C@@H]2O[C@@H](C)[C@](O)(C=O)[C@H]2O[C@@H]2O[C@@H](CO)[C@H](O)[C@@H](O)[C@@H]2NC)[C@@H](N/C(N)=N\[H])[C@@H]1O` [STREPTOMYCIN], the concentration at half-maximal activity (AC50) in data set [1], in data set [8], in [3], in data set [4], in data set [9] (read-out: AC50) and in [10] was > 30 µM in each case. Moreover, the AC50 (in [11]; in [12]; in data set [6]; on D(3) dopamine receptor) was > 30 µM each time.
Consider `CN1c2ccccc2C(NCCCCCCC(=O)O)c2ccc(Cl)cc2S1(=O)=O` (centres undefined) [TIANEPTINE], for which the AC50 (in [7]; in data set [1]; in data set [8]; at Histamine H1 receptor; in data set [2]; in [3]) was > 30 µM each time. Besides, the AC50 was > 30 µM in data set [4]; > 30 µM in data set [10]; > 30 µM in data set [11]; > 30 µM in data set [6]; 20 µM at D(3) dopamine receptor.
Consider `COc1cc2nccc(Oc3ccc(NC(=O)Nc4cc(C)on4)c(Cl)c3)c2cc1OC` [TIVOZANIB], for which the AC50 in [1] is > 30 µM; at Histamine H1 receptor, > 30 µM; in data set [2], > 30 µM; in [9] (read-out: AC50), > 1 µM; in data set [12], > 3 µM; in data set [6], 16 µM.
As for `Cc1cccc(N(C)C(=S)Oc2ccc3ccccc3c2)c1` [TOLNAFTATE], the AC50 in data set [1] was > 30 µM; in data set [8] it was > 10 µM; in data set [3], > 10 µM; in [4], > 10 µM; in data set [9] (read-out: AC50), > 30 µM; in [10] it was > 10 µM. The AC50 in data set [11] was > 10 µM; in data set [12], > 10 µM; in data set [6], > 30 µM; on D(3) dopamine receptor, > 30 µM.
Consider COLISTIN, for which the AC50 (in [7]; in data set [1]; at Histamine H1 receptor; in data set [2]; in [3]; in [4]) was > 30 µM throughout. Further, the AC50 was > 30 µM in data set [9] (human, cellular components); > 30 µM in data set [11]; > 30 µM in data set [6]; > 30 µM at D(3) dopamine receptor.

For the origin of these results see ChEMBL document CHEMBL5291721, “A preclinical secondary pharmacology resource illuminates target-adverse drug reaction associations of marketed drugs” (Nat Commun, 2023).
